Common to all, as to assay: NCI-60 cell line screen, 48 h
Assay [1] concerns HCT-15 colon.
Assay [2] concerns NCI-H226 lung.
In assay [3] the test system is A549 NSCLC.
Assay [4] concerns ACHN renal.
Assay [5] concerns K-562 leukemia.
Assay [6] concerns SF-295 CNS.
Assay [7] deals with RPMI-8226 leukemia.
Assay [8] has as its system SK-OV-3 ovarian.
In assay [9] the test system is SK-MEL-2 melanoma.
In assay [10] the test system is HL-60(TB) leukemia.

Each structure is given as a SMILES string. Several values for one entry are separate records, joined by “and”; a condition that tells them apart may be missing. Equal entries are not always repeated.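 The compound was tested at five concentrations on cells cultured in 96-well plates, with a 48-hour exposure period. Abbreviation: GI50, concentration required for 50% inhibition of growth. TGI denotes the concentration required for complete inhibition of growth.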 A value given as a limit tells only on which side of the number the result lay.

On to `C#Cc1cccc(Nc2ncnc3cc(OC)c(OCCCCCCC(=O)NO)cc23)c1`, for which the GI50 in [1] was 1.17 µM; in assay [2], 0.853 µM; in assay [3], 0.404 µM; in assay [4], 0.127 µM; in assay [5], 0.0817 µM; in assay [6], 0.311 µM. Besides, the GI50 is 0.302 µM in [7], 0.208 µM in [8], 0.309 µM in assay [9] and 0.334 µM in assay [10]. Also, the TGI turned out to be 6.1 µM in assay [1]; 4.81 µM in assay [2]; 4.45 µM in assay [3]; 2.48 µM in assay [4]; 2.18 µM in assay [6]; 1.78 µM in assay [7]. Further, the TGI turned out to be 1.03 µM in assay [8], 1.85 µM in assay [9] and 1.7 µM in [10].

With `CC(SC(C)C(=O)N/N=C/c1cccc(Cl)c1)C(=O)N/N=C\c1cccc(Cl)c1` (stereo not drawn), the GI50 in assay [1] is 32.3 µM; in assay [2] it was 17.5 µM; in assay [3], 3.3 µM; in assay [4], 5.53 µM; in assay [5], 31.6 µM; in assay [6], 14.1 µM. The GI50 in assay [7] is 17.9 µM; in assay [8], 13 µM; in assay [9], 6.9 µM; in assay [10], 6.24 µM. In addition, the TGI was greater than 100 µM in assay [1]; 43.1 µM in [2]; 12.3 µM in [3]; greater than 100 µM in [4]; greater than 100 µM in assay [5]; 35 µM in [6]. Besides, the TGI in assay [7] is greater than 100 µM; in [8] it was 31.2 µM; in assay [9], 25.3 µM; in assay [10], greater than 100 µM.

Turning to `CC1OC(n2cc(F)c(=O)[nH]c2=O)C=CC1O` (stereo not drawn), the TGI in assay [1], in assay [2], in [3], in assay [4], in assay [5] and in assay [6] was greater than 100 µM throughout. The TGI in assay [7], in assay [8], in assay [9] and in assay [10] was greater than 100 µM each time.

In the case of `COc1ccc(OC)c(NC(=O)C(=O)NNC(=O)c2sc(NNC(C)=O)nc2C)c1`, the TGI in assay [1] is greater than 100 µM; in assay [2] it was greater than 100 µM; in assay [3], greater than 100 µM; in assay [4], 96.1 µM; in assay [5], 43.1 µM; in [6], greater than 100 µM. The TGI in [7] is greater than 100 µM; in assay [8], greater than 100 µM; in assay [9], greater than 100 µM; in assay [10], 90.3 µM.

In the case of `Cc1ccc(C(SCC(N)C(=O)O)(c2ccccc2)c2ccc(C)cc2)cc1` (stereo not drawn), the GI50 in [1] is 0.367 µM; in assay [2] it was 3.02 µM; in [3] it was 0.466 µM; in assay [4], 1.78 µM; in assay [5], 0.266 µM; in assay [6] it was 0.167 µM. Further, the GI50 in [7] is 0.135 µM; in [8] it was 0.0811 µM; in [9] it was 0.219 µM; in [10] it was 0.235 µM. In addition, the TGI is 23.9 µM in assay [1]; 25.8 µM in assay [2]; 45.6 µM in assay [3]; 36.3 µM in [4]; greater than 35.2 µM in assay [5]; 2.15 µM in assay [6]. Moreover, the TGI amounted to 20.6 µM in [7], 19.6 µM in assay [8], 3.88 µM in assay [9] and 0.588 µM in [10].

Take `Clc1coc2nc3ccccc3c(Nc3ccc4c(c3)OCO4)c12`: the GI50 in assay [1] is 0.429 µM; in [2] it was 2.35 µM; in assay [3], 0.995 µM; in assay [4], 1.15 µM; in assay [5], 0.498 µM; in [6], 1.21 µM. In addition, the GI50 in [7] was 1.45 µM; in [8], 2.24 µM; in assay [9], 5.99 µM; in [10], 0.808 µM. Moreover, the TGI is 8.05 µM in [1]; greater than 26.2 µM in assay [2]; 22.3 µM in assay [3]; 12.1 µM in assay [4]; 4.42 µM in assay [6]; 4.44 µM in assay [7]. The TGI is greater than 100 µM in [8], greater than 100 µM in assay [9] and 8.82 µM in [10].

Turning to `O=c1n(CC2CO2)c(=O)n(CC2CO2)c(=O)n1CC1CO1` (stereo not drawn), the GI50 in [1] is 13.1 µM and 25.7 µM and 11.9 µM; in assay [2], 22.6 µM and 10.9 µM; in assay [3] it was 2.04 µM; in [4], 3.68 µM and 0.504 µM; in [5], 40.3 µM and 26.5 µM; in [6] it was 4.18 µM. Also, the GI50 in assay [7] was 28.4 µM and 17.6 µM; in assay [8], 6.86 µM; in [9], 36.9 µM and 33 µM; in assay [10], 5.21 µM and 2.39 µM. The TGI in [1] was 78.3 µM and 90.6 µM and > 100 µM; in assay [2], 78.3 µM and 103 µM and 45.9 µM; in [3] it was 134 µM and > 100 µM; in [4], 140 µM and > 100 µM; in [5], 308 µM and > 100 µM; in assay [6] it was 34.1 µM and 126 µM and > 100 µM. For the same compound, the TGI in assay [7] is 399 µM and > 100 µM; in assay [8], 123 µM and > 100 µM; in assay [9], 215 µM and > 100 µM; in assay [10], 28.1 µM and > 100 µM.

Take `C/C(=C\CCc1ccoc1)CC/C=C(\C)CCCC1=CC(=O)OC1`: the GI50 in [1] was 4.47 µM; in assay [2] it was 11 µM; in assay [3], 4.37 µM; in assay [4], 12.6 µM; in [5] it was 4.8 µM; in assay [6] it was 3.79 µM. Further, the GI50 in assay [7] was 2.85 µM; in assay [8] it was 12.6 µM; in assay [9], 9.35 µM; in assay [10] it was 6.3 µM. In addition, the TGI in assay [1] is 20 µM; in assay [2], 29.4 µM; in assay [3], greater than 100 µM; in assay [4], greater than 100 µM; in [5], greater than 100 µM; in assay [6], 18 µM. For the same compound, the TGI in [7] is 16.7 µM; in assay [8] it was 50.4 µM; in assay [9] it was 22.6 µM; in assay [10], 32.7 µM.

(Values after PubChem BioAssay (NCI).)
